From patent publication US20230218657A1, “COMPOSITIONS, THEIR USES IN THERAPY AND METHODS THEREOF” (National University of Singapore, priority 2020, published 2023)
“Also recorded” adds a separate entry of the source.

What was measured:
Type in all cases: in vivo
[1] = test system: apoE-/- mice; assay: Footpad tissue edema / swelling observed macroscopically in apoE-/- mice
From the text: (§1) To evaluate the effect of cyclodextrin on secondary lymphedema, an animal model of lymphatic insufficiency that mimics human pathophysiology of lymphedema was used, e.g adipose tissue remodeling, lipid accumulation, inflammation and fibrosis. This mouse model can be apoE lipoprotein E deficient mice. […] It is believed that this lymphatic insufficiency leads to adipose tissue expansion and then loss and fibrosis as also observed in human secondary lymphedema. To confirm this, female apoE-/- mice were treated with 2 g/kg body of cyclodextrin […] subcutaneously or vehicle alone (saline) subcutaneously every alternative day for a total of 2, 4 or 8 doses. Mice were euthanized, tissue swelling was observed macroscopically and lymphatic transport was examined by following up the transport of FITC dextran from the front footpad to the draining lymph nodes. Skin tissues was also examined histologically for lipid content (Oil red O staining).
FIG. 1 illustrates images of footpads from female wild-type (WT) or apoE-/-mice after receiving subcutaneous injection of cyclodextrin (CD; 2 g/kg body weight) or saline (control, NT) every alternative day for a total of 4 doses and harvested when mice were 17 weeks old on high fat diet. Swelling of the footpad of the mice was observed macroscopically (arrow heads: swelling region).

[2] = test system: apoE-/- mice; assay: CD68 immunofluorescence staining of back skin (inflammation, macrophage infiltration); details: 17 weeks old, particularly the 8 doses regime
Method: (§2) The formulation was assessed if it can reverses some tissue changes associated with lymphedema including fibrosis and inflammation.
CD68 is a pan-macrophage marker, perilipin was used to identify adipocytes and DAPI stains for the nucleus.

[3] = test system: apoE-/- mice; assay: Masson's Trichrome staining of back skin (fibrosis, collagen deposition); details: 17 weeks old, particularly the 8 doses regime
Method: as §2
Collagen was stained in blue, muscle and cytoplasm was stained in red and the nucleus was stained in black.

[4] = test system: apoE-/- mice; assay: Lymphatic transport of FITC dextran from footpad to draining lymph node
From the text: as §1
FIG. 3 plots the relative fluorescence in the lymph nodes of respective female WT or apoE-/- mice after receiving subcutaneous injection of cyclodextrin (CD; 2 g/kg body weight) or Saline (control, NT) every alternative day for a total of 4 doses. The mice were harvested when the mice were 17 weeks old on high fat diet. Lymphatic drainage was assessed by measuring the transport of fluorescent dextran from the footpad (site of injection) to the draining lymph node.
FIG. 4 plots the relative fluorescence in the lymph nodes of the respective mice under a different dosage regime.

[5] = test system: apoE-/- mice; assay: Oil red O staining of footpad skin for lipid accumulation; details: 2 g/kg subcutaneous, alternate days, 4 doses; female apoE-/- mice, 17 weeks old, high fat diet; vs saline
From the text: as §1
FIG. 2 illustrates microscopic images of female WT or apoE-/- mice after receiving subcutaneous injection of cyclodextrin (CD; 2 g/kg body weight) or saline (control, NT) every alternative day for a total of 4 doses and harvested when mice were 17 weeks old on high fat diet. Section of footpad skin were stained for neutral lipid with Oil red O (red staining) to identify lipid accumulation in the tissue.

[6] = test system: apoE-/- mice; assay: Total cholesterol in front footpad and plasma cholesterol
From the text: Cyclodextrin was administrated subcutaneously alternate days.

[7] = 8 doses, apoE-/- mice at 42 weeks of age (greater severity)

In the case of cyclodextrin, the “tissue edema / footpad swelling” value ([1]; 2 g/kg subcutaneous, alternate days, 4 doses, female apoE-/- mice, 17 weeks old, high fat diet, vs saline) is reported as “improved significantly tissue edema in the footpad; also recorded: decreased footpad swelling”, the tissue swelling [1, 7] is reported as “not able to improve lymphatic function and ameliorate tissue changes such as tissue swelling” and the reducing lymphedema ([1]; intradermal injection, animal model of lymphedema (summary statement)) is reported as “effective in reducing lymphedema”. For the same substance, the “inflammation (infiltration of macrophages in adipose tissue, CD68) in back skin” value [2] was “reduces fibrosis (FIG. 7A) and inflammation; also recorded: the extent of macrophage accumulation and crown-like structures (white boxes) decreases”, the “fibrosis (collagen deposition) in back skin” value [3] was “reduces fibrosis” and the lymphatic function ([4]; 2 g/kg subcutaneous, alternate days, 2 doses, female apoE-/- mice, 17 weeks old) was “improved lymphatic function but in lesser extent compared to 4 doses; also recorded: sufficient to improve lymphatic function”. The “lymphatic transport / lymphatic function” value ([4]; 2 g/kg subcutaneous, alternate days, 4 doses, female apoE-/- mice, 17 weeks old) was “completely restored lymphatic transport; also recorded: restoring completely lymphatic function; also recorded: completely restored it”, the lymphatic function ([4]; 2 g/kg subcutaneous, alternate days, 8 doses, female apoE-/- mice, 17 weeks old, compared to 4 doses) was “did not further enhance lymphatic function; also recorded: did not improve further lymphatic function” and the lymphatic function [4, 7] was “not able to improve lymphatic function”. The “lipid accumulation in footpad skin (Oil red O staining)” value [5] was “decreased lipid accumulation; also recorded: decreased accumulation of lipids”, the plasma cholesterol levels ([6]; apoE-/- mice treated with cyclodextrin) was “does not affect plasma cholesterol levels” and the “tissue cholesterol (total cholesterol in front footpad)” value ([6]; subcutaneous, alternate days, 4 or 8 doses, apoE-/- mice, 17 weeks old) was “reduces tissue cholesterol; also recorded: decreased total cholesterol levels in the front foot pad”.
